Data: paper PMC12313340, “Functional analysis of a UDP-glucosyltransferase gene contributing to biosynthesis of the flavonol triglycoside in tea plants” (Horticulture Research, 2025)

Key:
[1] = target: T1, CsFGT (rCsFGT) (Camellia sinensis, UniProt A0A0X9FCW5, S291G); test: product formation by HPLC; type: biochemical; settings: co-substrate UDP-glc
T1 construct: gene UGT91Q1; N-terminal 6xHis-trigger factor fusion (pCold-TF), about 105 kDa; E. coli Origami (DE3); tag not removed for kinetics

[2] = target: T2, CsFGT (rCsFGT) (Camellia sinensis, UniProt A0A0X9FCW5, E292Q); test: product formation by HPLC; type: biochemical; settings: co-substrate UDP-glc
T2 construct: gene UGT91Q1; N-terminal 6xHis-trigger factor fusion (pCold-TF), about 105 kDa; E. coli Origami (DE3); tag not removed for kinetics
T2 sequence (A0A0X9FCW5 entry or part of it E292Q): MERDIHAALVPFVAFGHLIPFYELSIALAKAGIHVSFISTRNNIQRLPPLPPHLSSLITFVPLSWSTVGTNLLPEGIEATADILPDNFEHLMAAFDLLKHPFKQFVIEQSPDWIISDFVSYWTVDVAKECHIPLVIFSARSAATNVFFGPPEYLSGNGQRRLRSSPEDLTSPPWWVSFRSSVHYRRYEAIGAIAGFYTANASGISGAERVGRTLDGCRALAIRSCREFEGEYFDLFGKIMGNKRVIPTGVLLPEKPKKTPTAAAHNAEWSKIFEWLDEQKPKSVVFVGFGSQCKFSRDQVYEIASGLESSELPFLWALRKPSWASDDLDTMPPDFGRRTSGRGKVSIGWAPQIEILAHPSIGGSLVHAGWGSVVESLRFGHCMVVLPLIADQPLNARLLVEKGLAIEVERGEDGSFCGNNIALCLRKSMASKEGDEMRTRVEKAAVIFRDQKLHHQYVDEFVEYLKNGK

[3] = target: T3, CsFGT (rCsFGT) (Camellia sinensis, UniProt A0A0X9FCW5, Q352A); test: product formation by HPLC; type: biochemical; settings: co-substrate UDP-glc
T3 construct: gene UGT91Q1; N-terminal 6xHis-trigger factor fusion (pCold-TF), about 105 kDa; E. coli Origami (DE3); tag not removed for kinetics
T3 sequence (A0A0X9FCW5 entry or part of it Q352A): as the sequence (A0A0X9FCW5 entry or part of it E292Q) above, with Q292E, Q352A counted along it

[4] = target: T4, CsFGT (rCsFGT) (Camellia sinensis, UniProt A0A0X9FCW5, G290A); test: product formation by HPLC; type: biochemical; settings: co-substrate UDP-glc
T4 construct: gene UGT91Q1; N-terminal 6xHis-trigger factor fusion (pCold-TF), about 105 kDa; E. coli Origami (DE3); tag not removed for kinetics
T4 sequence (A0A0X9FCW5 entry or part of it G290A): as the sequence (A0A0X9FCW5 entry or part of it E292Q) above, with G290A, Q292E counted along it

[5] = target: T5, CsFGT (rCsFGT) (Camellia sinensis, UniProt A0A0X9FCW5, E292T); test: product formation by HPLC; type: biochemical; settings: co-substrate UDP-glc
T5 construct: gene UGT91Q1; N-terminal 6xHis-trigger factor fusion (pCold-TF), about 105 kDa; E. coli Origami (DE3); tag not removed for kinetics
T5 sequence (A0A0X9FCW5 entry or part of it E292T): as the sequence (A0A0X9FCW5 entry or part of it E292Q) above, with Q292T counted along it

[6] = target: T6, CsFGT (rCsFGT) (Camellia sinensis, UniProt A0A0X9FCW5, R319P); test: product formation by HPLC; type: biochemical; settings: co-substrate UDP-glc
T6 construct: gene UGT91Q1; N-terminal 6xHis-trigger factor fusion (pCold-TF), about 105 kDa; E. coli Origami (DE3); tag not removed for kinetics
T6 sequence (A0A0X9FCW5 entry or part of it R319P): as the sequence (A0A0X9FCW5 entry or part of it E292Q) above, with Q292E, R319P counted along it

[7] = target: T7, CsFGT (rCsFGT) (Camellia sinensis, UniProt A0A0X9FCW5, R319N); test: product formation by HPLC; type: biochemical; settings: co-substrate UDP-glc
T7 construct: gene UGT91Q1; N-terminal 6xHis-trigger factor fusion (pCold-TF), about 105 kDa; E. coli Origami (DE3); tag not removed for kinetics
T7 sequence (A0A0X9FCW5 entry or part of it R319N): as the sequence (A0A0X9FCW5 entry or part of it E292Q) above, with Q292E, R319N counted along it

[8] = target: T8, CsFGT (rCsFGT) (Camellia sinensis, UniProt A0A0X9FCW5, Q352I); test: product formation by HPLC; type: biochemical; settings: co-substrate UDP-glc
T8 construct: gene UGT91Q1; N-terminal 6xHis-trigger factor fusion (pCold-TF), about 105 kDa; E. coli Origami (DE3); tag not removed for kinetics
T8 sequence (A0A0X9FCW5 entry or part of it Q352I): as the sequence (A0A0X9FCW5 entry or part of it E292Q) above, with Q292E, Q352I counted along it

[9] = substrate: C[C@@H]1O[C@@H](OC[C@H]2O[C@@H](Oc3c(-c4ccc(O)c(O)c4)oc4cc(O)cc(O)c4c3=O)[C@H](O)[C@@H](O)[C@@H]2O)[C@H](O)[C@H](O)[C@H]1O; test: UDP-Glo glycosyltransferase assay, Michaelis-Menten fit; type: biochemical, Camellia sinensis; settings: 1 mM UDP-glucose, 50 mM phosphate pH 8.0, 30°C, 10 min
Source text: (§1) UDP-Glo glycosyltransferase assay, Michaelis-Menten fit on CsFGT (rCsFGT)

[10] = substrate: O=c1ccn([C@@H]2O[C@H](COP(=O)(O)OP(=O)(O)O[C@H]3O[C@H](CO)[C@H](O)[C@H](O)[C@H]3O)[C@@H](O)[C@H]2O)c(=O)[nH]1; test: as above; type: biochemical, Camellia sinensis; settings: co-substrate delphinidin, pH 8.0, 30°C, 10 min, galactosyl transfer
Source text: as §1

[11] = substrate: O=c1ccn([C@@H]2O[C@H](CO[P@@](=O)(O)O[P@@](=O)(O)O[C@H]3O[C@H](CO)[C@@H](O)[C@H](O)[C@H]3O)[C@@H](O)[C@H]2O)c(=O)[nH]1; test: as above; type: biochemical, Camellia sinensis; settings: 100 μM Q-g-r (rutin), 50 mM phosphate pH 8.0, 30°C, 10 min
Source text: as §1

[12] = substrate: Oc1cc(O)c2cc(O)c(-c3cc(O)c(O)c(O)c3)[o+]c2c1; test: as above; type: biochemical, Camellia sinensis; settings: 1 mM UDP-galactose, pH 8.0, 30°C, 10 min, galactosyl transfer
Source text: as §1

T1 sequence (A0A0X9FCW5 entry or part of it S291G): as the sequence (A0A0X9FCW5 entry or part of it E292Q) above, with S291G, Q292E counted along it

## C[C@@H]1O[C@@H](OC[C@H]2O[C@@H](Oc3c(-c4ccc(O)c(O)c4)oc4cc(O)cc(O)c4c3=O)[C@H](O)[C@@H](O)[C@@H]2O)[C@H](O)[C@H](O)[C@H]1O [Q-g-r]
[1]
  relative enzymatic activity: mutants with activity unchanged or enhanced (G290A, S291G, E292Q, R319N, and R319P)
[2]
  relative enzymatic activity: mutants with activity unchanged or enhanced (G290A, S291G, E292Q, R319N, and R319P)
[3]
  relative enzymatic activity: E292T, Q352A, and Q352I mutants exhibited significantly decreased activity
[4]
  relative enzymatic activity: mutants with activity unchanged or enhanced (G290A, S291G, E292Q, R319N, and R319P)
[5]
  relative enzymatic activity: E292T, Q352A, and Q352I mutants exhibited significantly decreased activity
[6]
  relative enzymatic activity: mutants with activity unchanged or enhanced (G290A, S291G, E292Q, R319N, and R319P)
[7]
  relative enzymatic activity: the mutant R319N had significantly enhanced activity
[8]
  relative enzymatic activity: E292T, Q352A, and Q352I mutants exhibited significantly decreased activity

B1: CsFGT (rCsFGT) (Camellia sinensis) (protein)
chain: MERDIHAALVPFVAFGHLIPFYELSIALAKAGIHVSFISTRNNIQRLPPLPPHLSSLITFVPLSWSTVGTNLLPEGIEATADILPDNFEHLMAAFDLLKHPFKQFVIEQSPDWIISDFVSYWTVDVAKECHIPLVIFSARSAATNVFFGPPEYLSGNGQRRLRSSPEDLTSPPWWVSFRSSVHYRRYEAIGAIAGFYTANASGISGAERVGRTLDGCRALAIRSCREFEGEYFDLFGKIMGNKRVIPTGVLLPEKPKKTPTAAAHNAEWSKIFEWLDEQKPKSVVFVGFGSECKFSRDQVYEIASGLESSELPFLWALRKPSWASDDLDTMPPDFGRRTSGRGKVSIGWAPQIEILAHPSIGGSLVHAGWGSVVESLRFGHCMVVLPLIADQPLNARLLVEKGLAIEVERGEDGSFCGNNIALCLRKSMASKEGDEMRTRVEKAAVIFRDQKLHHQYVDEFVEYLKNGK
notes: N-terminal 6xHis-trigger factor fusion (pCold-TF), about 105 kDa; E. coli Origami (DE3); tag not removed for kinetics
[9]
  Km: 50.3 ± 9.7 µM
  kcat/Km: 610000 M⁻¹ s⁻¹
[10]
  Km: 1143.3 ± 313.5 µM
  kcat/Km: 3100 M⁻¹ s⁻¹
[11]
  Km: 209.7 ± 43.9 µM
  kcat/Km: 110000 M⁻¹ s⁻¹
[12]
  Km: 902.5 ± 109.0 µM
  kcat/Km: 24000 M⁻¹ s⁻¹
